Experiment: in vitro
Settings: human, hela cells, % viability

Structure (SMILES)	viability at 28.5 h, 10 µM	viability at 28.5 h, 10 µM (bulk resorufin, single well)
CN(C)CC(C)(C)CNC(=O)C1(c2ccccc2)CCCC1 [CBK149532]	107%	
COc1ccc(NC(=O)CN2CCN(S(=O)(=O)N(C)C)CC2)cc1 [CBK267465]	93.3%	
c1ccc(CN2CCC(N3CCC(N4CCc5ccccc5C4)CC3)CC2)cc1 [CBK264730G]	91%	
CC(C)CNC(=S)N[C@H]1CC[C@@]2(c3cccnc3)CCN(Cc3ccccc3)[C@H]2C1 [CBK028460]	125%	
O=C(Nc1ccc(F)cc1)N1C2CCC1CC(O)(c1cccnc1)C2 (stereo not drawn) [CBK281946]	89.9%	
CS(=O)(=O)CCNC(=O)c1cnc(-c2ccc(F)cc2)c(-c2cccnc2)c1 [CBK038066]	88%	
COc1cc(OC)cc(C(=O)Nc2cccc(-c3nc4ccccc4o3)c2)c1 [CBK097706]	95.5%	
CCCc1nc(C(=O)NC2CC(=O)N(CCc3ccc(F)cc3)C2)cs1 (stereo not drawn) [CBK306548]	105%	
CC(C)(C)C(=O)N1CCC(n2nc(-c3cccs3)oc2=O)CC1 [CBK282423]	88%	
Cc1cc(=O)c2ccccc2n1CC(=O)N1CCNC(=O)C1C (stereo not drawn) [CBK306511]	109%	
CCNc1nc2ccccn2c(=O)c1C=C1SC(=S)N(CCCC(=O)O)C1=O [CBK296757]	87.9%	
Cc1noc(NS(=O)(=O)c2ccc(NC(=O)C3COc4ccccc4O3)cc2)c1C (stereo not drawn) [CBK264923]	90.1%	
Cc1cc(NC(=O)CN2CCN(Cc3ccc4c(c3)CCO4)CC2)on1 [CBK305610]	92.5%	
CN(C)CCN(C)C(=O)c1cc(Br)cnc1N(C)S(C)(=O)=O [CBK076476]	96.2%	
Cn1c(=O)oc2cc(S(=O)(=O)Nc3cccc(CCc4ccccn4)c3)ccc21 [CBK286357]	102%	
c1ccc(N2CCN(c3cccc(-c4ccco4)n3)CC2)nc1 [CBK037662]	107%	
NC(=O)C1CCN(Cc2nc(-c3cccc(C(F)(F)F)c3)no2)CC1 [CBK304276]	97.4%	
C/C(C(=O)O)=C(/C)C(=O)N1CCC2(CC1)NCCc1c2[nH]c2ccc(C)cc12 [CBK047026]	100%	
COc1ccc(Cl)cc1C(=O)Nc1cnn(CCCC(=O)O)c1 [CBK269855]	80.7%	
Cc1ccc(OCC(=O)Nc2ncc(Cc3ccc(F)cc3)s2)cc1 [CBK293930]	82.2%	
NS(=O)(=O)c1ccc(NC(=O)CCCN2C(=O)/C(=C/c3ccc(Cl)cc3)SC2=S)cc1 [CBK261302]	87.9%	
O=C1NCCN1CCOc1nccnc1-c1cnn(Cc2ccccc2)c1 [CBK107094]	86.3%	

Structure (SMILES)	viability at 28.5 h, 10 µM	viability at 28.5 h, 10 µM (bulk resorufin, single well)
Cc1c(C(=O)N2CCCCC2C(N)=O)nnn1-c1cccc(Cl)c1 (stereo not drawn) [CBK305490]	106%	
Cc1cccc(CCNC(=O)c2cccn(CC(=O)N(C)C3CCCCC3)c2=O)c1 [CBK286113]	104%	
COC(=O)CNC(=O)c1ccc(S(=O)(=O)N2CCCC2)cc1 [CBK264880]	88.4%	
CCc1nc2ccccc2n1CC(=O)N(CCC#N)Cc1cccnc1 [CBK304892]	87.7%	
CN(c1ncc(-c2cc3ccccc3o2)cc1C(=O)NCC(F)(F)F)S(C)(=O)=O [CBK106479]	114%	
Cc1csc(NC(=O)CN2CCC(c3ccc(F)cc3)CC2)n1 [CBK283567]	94.2%	
CCN1C(=O)CC2(C1=O)C(=O)N(CCc1cccs1)c1ccc(Cl)cc12 (stereo not drawn) [CBK075614]	106%	
CN1C(=O)CC(Sc2ccccc2C(=O)O)C1=O (stereo not drawn) [CBK287213]	89.5%	
C=CCNC(=O)N[C@H]1[C@H](O)[C@@H](N2CCC(C(=O)OC)CC2)[C@@H]2OC[C@H]1O2 [CBK288807]	82.1%	
O=C(NC1CCCC1)c1ccc(-c2cnc3[nH]c(=O)n(C4CCCCC4)c3n2)cc1 [CBK064582]	113%	
COc1ccc(CCN(Cc2ccc(Cl)c(Cl)c2)C(=O)NCCCSC)cc1OC [CBK158758]	91.1%	
O=C(O)Cc1sc(-c2ccc(Cl)cc2)nc1O [CBK067730]	93.1%	
CC1CCc2c(sc(NC(=O)COc3ccccc3)c2C(=O)Nc2ccccc2Cl)C1 (stereo not drawn) [CBK263044]	101%	
CC(C)Cc1nnc(-c2ccccc2Cl)n1CC1CC1 [CBK200097]	98.1%	
CCCc1ccc(S(=O)(=O)Nc2nc(-c3cccc([N+](=O)[O-])c3)cs2)cc1 [CBK000987]	88.1%	
CN(C)CC(=O)N1CCN(c2cncc(-c3ccc(O)cc3)n2)CC1 [CBK126921T]	97.2%	
O=C(O)c1ccc(OCCN2CCOCC2)cc1 [CBK287038]	94.5%	
O=S(=O)(c1ccc(Cl)cc1)N1CCN(c2cc(-c3ccco3)ncn2)CC1 [CBK091161]	111%	
Cc1ccc2c(c1)cc(C(=O)N1CCCC(C)(C(=O)NC3CCCC3)C1)n2C (stereo not drawn) [CBK286076]	81.3%	
COc1ccc(CCOc2nccnc2-c2ccc(OC(F)(F)F)cc2)cc1 [CBK106846]	109%	
CC(=O)Nc1cccc(-c2ccc(N3CCN(CCN(C)C)CC3)nc2)c1 [CBK036857]	104%	
Cc1cn(-c2ccc(Br)cc2)[nH]c1=O [CBK288513]	92.7%	

Structure (SMILES)	viability at 28.5 h, 10 µM	viability at 28.5 h, 10 µM (bulk resorufin, single well)
CC(=O)[C@H]1C[C@@H](CC(=O)N2CCC(C(C)=O)(c3ccccc3)CC2)C1(C)C [CBK091323]		109%
Cc1cc(S(=O)(=O)NCc2cc(F)c(F)c(F)c2)c(C)cc1Cl [CBK043813]	85%	
Oc1ccc(C2N(O)C3CCCCC3N2O)cc1 (stereo not drawn) [CBK261715]	92.8%	
CC1(C)O[C@@H]2O[C@@H](C(O)CNC(=O)c3ccccc3)[C@@H](NC(=O)c3ccccc3)[C@@H]2O1 (stereo partly drawn) [CBK008727]	101%	
O=C(Nc1ccc2cc(Br)cnc2n1)c1ccccc1[N+](=O)[O-] [CBK063253]	96.8%	
Cc1ccc(OCc2occc2C(=O)N2CCCC3(CCOC3)C2)cc1 (stereo not drawn) [CBK307532]	89.4%	
Cc1c(OCc2ccccc2)ccc2c1OC1(CCN(C(=O)c3ccccn3)CC1)CC2=O [CBK156441]	106%	
O=C(O)c1cccc(-c2nccnc2NCC2CC2)c1 [CBK038043]	95.5%	
COc1cc(C(C)c2cc3c(cc2OCC(=O)O)OCO3)cc(OC)c1OC (stereo not drawn) [CBK200109]	90.5%	
COc1cc(-c2nnc(NC(=O)c3ccc(C)cc3)o2)cc(OC)c1OC [CBK287699]	92.2%	
O=C(CCc1nc2ccccc2nc1O)OCc1cccc([N+](=O)[O-])c1 [CBK266804]	85%	
NC(=O)C(=O)c1c(-c2ccccc2)cc2ccccn12 [CBK288466]	100%	
Oc1ccc(-c2cncc(Nc3cccc(Br)c3)n2)cc1 [CBK107803]	84.8%	
O=C(CC1SC(=O)NC1=O)Nc1ccccc1O (stereo not drawn) [CBK057932]	98.5%	
CC(Cc1cccs1)NC(=O)c1cc2c([nH]c1=O)CCCCC2 (stereo not drawn) [CBK282523]	109%	
CC(C)(c1ccccc1)c1ccc(OCc2ccc(S(=O)(=O)N3CCOCC3)cc2)cc1 [CBK267407]	96.8%	
Cc1ccc(NC(=O)CN2C(=O)S/C(=C\c3cc(C)n(-c4ccc(C(=O)O)cc4)c3C)C2=O)cc1 [CBK264465]	91.6%	
COc1ccc(CSCC(N)C(=O)O)cc1Br (stereo not drawn) [CBK264026]	94%	
O=S(=O)(N1CCNCC1)N1CCOCC1 [CBK267467]	88.5%	
Cc1cc(N2C(=O)c3ccc(Oc4ccc5c(c4)C(=O)N(c4cc(C)on4)C5=O)cc3C2=O)no1 [CBK266463]	85.8%	
CSc1cc(C)c2c(c1)COC1(CCN(CC3CC3)CC1)O2 [CBK061383]	94.1%	
CCC(=O)N1CCN(c2ccccc2NC(=O)c2ccc(C#N)cc2F)CC1 [CBK270110]	81.8%	

Structure (SMILES)	viability at 28.5 h, 10 µM	viability at 28.5 h, 10 µM (bulk resorufin, single well)
O=C(c1cccc(C(F)(F)F)c1)N1CCCCCC1 [CBK074291]	98.4%	
Oc1nc(CN2CCN(Cc3ccc4c(c3)OCO4)CC2)nc2ccccc12 [CBK074355]	110%	
Cc1nc2ncccn2c1-c1csc(Nc2ccc(C(=O)O)cc2)n1 [CBK263284]	125%	
CC1CN(C(=O)CCn2c(C(F)F)cc3cccnc32)CC(C)O1 (stereo not drawn) [CBK284984]	95.3%	
CC(C)c1ccc(S(=O)(=O)NCCc2ccccc2)cc1 [CBK044426]	94.1%	
CCn1c(C)nnc1SCC(=O)Nc1cc(C(F)(F)F)ccc1Cl [CBK304382]	91.7%	
O=[N+]([O-])c1ccc(O)c(/C=N/C(CO)(CO)CO)c1 [CBK261835]	89.3%	
Cn1c(=O)n(C)c2cc(S(=O)(=O)NCC3(N)CCOCC3)ccc21 [CBK306266]	113%	
COc1ccccc1C1(NC(=O)c2cnsc2)CCCC1 [CBK283643]	84.5%	
O=C(Cn1c(-c2ccccn2)nc2ccccc21)NCCN1CCOCC1 [CBK267214]	95%	
CCCCc1ccc(-c2ccc(-c3cc(C(=O)O)c4cc(C)ccc4n3)o2)cc1 [CBK300528]	94%	
CN(CCOc1ccc(CC2SC(=O)NC2=O)cc1)c1ccccn1 (stereo not drawn) [CBK013537]	101%	
O=C(NC(Cc1cccs1)c1nccs1)c1cccnc1 (stereo not drawn) [CBK285133]	98.3%	
N=c1n(CCN2CCCC2)c2ccccc2n1CC(O)c1ccc(Cl)c(Cl)c1 (stereo not drawn) [CBK263448C]	83.6%	
CC(C)(C)C1CCC(OC(=O)Cn2nnc3ccccc3c2=O)CC1 (stereo not drawn) [CBK306408]	88.9%	
COc1cncc(C(NC(=O)c2ccn3nnnc3c2)[C@H]2C[C@@H](O)C2)c1 (stereo partly drawn) [CBK306686]	96.2%	
Cc1ccc(NC(=O)c2ccncc2)c(Br)c1 [CBK058282]	94.1%	
O=C(O)CCC(=O)N1N=C2C(=Cc3ccco3)CCCC2C1c1ccco1 (stereo not drawn) [CBK296069]	97.9%	
O=C(c1ccc2occc2c1)N1CCCC2(CCN(Cc3ccccc3)C2)C1 (stereo not drawn) [CBK136882]	105%	
Cc1nc(C(=O)N2CCn3nc(C(O)c4ccccc4)cc3C2)c(C)s1 (stereo not drawn) [CBK307474]	92.5%	
CC(C)NC(=O)N[C@H]1CCN2C(=O)c3cc(-c4ccc(F)cc4F)ccc3NC(=O)[C@H]12 [CBK289346]	86.8%	
